Measurements taken from patent US11040018B2, “Formulation for inhibiting formation of 5-HT2B agonists and methods of using same” (ZOGENIX INTERNATIONAL LIMITED, priority 2016, dated 2021).
“And” between values parts separate entries of the source, which are not always exact repeats. Equal values may be shown once.

Tests used:
[1] = Drug-drug interaction clinical trial: fenfluramine co-administered with stiripentol, clobazam and valproate; plasma levels of fenfluramine and norfenfluramine; settings: healthy volunteers; for Exposure impact: ratio of AUC0-72 for combination treatment to AUC0-72 for fenfluramine alone: single dose, fenfluramine 0.8 mg/kg with stiripentol 3,500 mg, clobazam 20 mg, valproate 25 mg/kg (≤1,500 mg), blood plasma, interim results
Description: The effects of co-administration of a three-drug regimen on fenfluramine metabolism and resultant plasma levels of fenfluramine and its metabolite norfenfluramine was assessed in a clinical trial using in healthy volunteers.
A randomized, open-label, single-dose, 3-way cross-over study was designed to examine the effects of co-administering fenfluramine with a three-drug cocktail consisting of stiripentol, clobazam, and valproate. Each patient was treated sequentially with three treatment regimens, each being administered individually, according to six different treatment sequences which were assigned randomly.
Subjects were recruited from an existing pool of volunteers or through direct advertising, Prospects who had participated in a study within three months prior of dosing were excluded from the pool of potential participants. A full medical history for the preceding 12-month period was obtained from each subject's primary care physician and evaluated. Patients were then assessed according to the inclusion and exclusion criteria shown below. Persons chosen as study participants underwent a screening visit prior to participation to reassess and confirm compliance with those criteria.
AUC0-72 values were calculated based on blood plasma levels of fenfluramine and norfenfluramine levels. Exposure impact is expressed as a ratio of AUC0-72 values determined for patients receiving the combination treatment to the AUC0-72 values determined for patients receiving fenfluramine alone.

[2] = target: 5-HT2B receptor (Homo sapiens, UniProt P41595); settings: cited from earlier work
5-HT2B receptor, sequence (P41595 whole entry): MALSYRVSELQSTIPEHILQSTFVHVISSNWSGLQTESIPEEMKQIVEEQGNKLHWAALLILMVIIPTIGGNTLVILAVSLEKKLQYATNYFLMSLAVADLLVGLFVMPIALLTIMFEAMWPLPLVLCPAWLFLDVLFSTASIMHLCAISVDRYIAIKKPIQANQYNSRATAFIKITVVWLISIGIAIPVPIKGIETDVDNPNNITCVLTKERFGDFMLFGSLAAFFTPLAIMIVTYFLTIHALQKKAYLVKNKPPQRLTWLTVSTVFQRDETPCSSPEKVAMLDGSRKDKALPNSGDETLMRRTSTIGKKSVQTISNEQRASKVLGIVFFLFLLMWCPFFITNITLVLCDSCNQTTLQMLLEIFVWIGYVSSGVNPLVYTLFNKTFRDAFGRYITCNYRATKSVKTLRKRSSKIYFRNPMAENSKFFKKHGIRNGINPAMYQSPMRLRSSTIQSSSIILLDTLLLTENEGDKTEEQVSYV

[3] = target: CYP1A2 (Homo sapiens, UniProt P05177); settings: cited from earlier work
CYP1A2, sequence (P05177 whole entry): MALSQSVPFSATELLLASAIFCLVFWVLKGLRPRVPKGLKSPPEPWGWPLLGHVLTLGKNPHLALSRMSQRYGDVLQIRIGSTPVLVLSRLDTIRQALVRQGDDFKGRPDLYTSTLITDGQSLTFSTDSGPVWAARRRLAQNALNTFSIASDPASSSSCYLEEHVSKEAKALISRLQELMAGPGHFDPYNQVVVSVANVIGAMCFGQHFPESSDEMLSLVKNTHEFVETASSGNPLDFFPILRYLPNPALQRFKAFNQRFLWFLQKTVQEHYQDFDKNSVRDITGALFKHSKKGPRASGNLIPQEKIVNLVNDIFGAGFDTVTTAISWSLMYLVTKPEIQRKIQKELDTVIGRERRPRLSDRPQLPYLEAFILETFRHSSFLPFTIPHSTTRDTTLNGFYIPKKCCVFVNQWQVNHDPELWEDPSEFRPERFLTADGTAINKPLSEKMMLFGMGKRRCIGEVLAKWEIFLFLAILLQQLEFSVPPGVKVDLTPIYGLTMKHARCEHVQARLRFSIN

[4] = target: T1, CYP2B6 (Homo sapiens, UniProt P20813); settings: cited from earlier work
T1 sequence (P20813 1-491): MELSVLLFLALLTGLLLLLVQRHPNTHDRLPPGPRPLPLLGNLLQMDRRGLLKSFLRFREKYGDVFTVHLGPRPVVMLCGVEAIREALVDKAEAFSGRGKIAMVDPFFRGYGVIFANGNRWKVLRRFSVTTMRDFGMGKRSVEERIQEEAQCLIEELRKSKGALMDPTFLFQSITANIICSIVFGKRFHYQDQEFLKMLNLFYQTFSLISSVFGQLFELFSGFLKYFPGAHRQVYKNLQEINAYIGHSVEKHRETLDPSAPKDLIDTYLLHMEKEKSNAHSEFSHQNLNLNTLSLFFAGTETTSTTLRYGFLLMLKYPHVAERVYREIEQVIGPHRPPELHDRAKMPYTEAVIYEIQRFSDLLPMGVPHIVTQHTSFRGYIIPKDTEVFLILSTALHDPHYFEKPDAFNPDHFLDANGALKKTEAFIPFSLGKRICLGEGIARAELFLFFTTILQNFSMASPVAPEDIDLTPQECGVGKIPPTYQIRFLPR

[5] = target: T2, CYP2C8 (Homo sapiens, UniProt P10632); settings: cited from earlier work
T2 sequence (P10632 1-490): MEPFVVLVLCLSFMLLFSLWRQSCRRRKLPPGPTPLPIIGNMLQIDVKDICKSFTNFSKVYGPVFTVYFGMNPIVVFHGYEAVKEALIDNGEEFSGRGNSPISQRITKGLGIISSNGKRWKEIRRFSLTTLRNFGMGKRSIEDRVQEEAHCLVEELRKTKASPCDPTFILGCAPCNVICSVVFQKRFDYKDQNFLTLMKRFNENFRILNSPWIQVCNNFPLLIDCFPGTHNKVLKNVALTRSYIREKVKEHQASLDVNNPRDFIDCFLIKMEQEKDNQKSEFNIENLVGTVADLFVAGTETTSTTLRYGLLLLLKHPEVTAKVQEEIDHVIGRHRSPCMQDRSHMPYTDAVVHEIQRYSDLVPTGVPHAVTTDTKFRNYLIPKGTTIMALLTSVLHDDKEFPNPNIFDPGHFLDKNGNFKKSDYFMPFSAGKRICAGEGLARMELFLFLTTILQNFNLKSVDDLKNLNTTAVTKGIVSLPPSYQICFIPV

[6] = target: CYP2C9 (Homo sapiens, UniProt P11712); settings: cited from earlier work
CYP2C9, sequence (P11712 whole entry): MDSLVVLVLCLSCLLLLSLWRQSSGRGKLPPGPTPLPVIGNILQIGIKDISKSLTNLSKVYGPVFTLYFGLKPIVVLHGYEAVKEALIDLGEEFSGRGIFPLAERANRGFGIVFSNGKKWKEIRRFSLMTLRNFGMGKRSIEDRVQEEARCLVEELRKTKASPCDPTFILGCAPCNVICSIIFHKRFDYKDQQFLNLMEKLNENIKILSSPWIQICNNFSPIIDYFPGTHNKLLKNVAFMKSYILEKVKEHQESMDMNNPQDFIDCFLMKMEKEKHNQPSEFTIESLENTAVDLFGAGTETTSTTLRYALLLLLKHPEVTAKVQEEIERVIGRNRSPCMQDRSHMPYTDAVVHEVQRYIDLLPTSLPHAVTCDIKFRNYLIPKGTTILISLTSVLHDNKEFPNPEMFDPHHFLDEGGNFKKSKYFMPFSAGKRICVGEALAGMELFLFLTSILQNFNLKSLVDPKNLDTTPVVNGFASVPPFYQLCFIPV

[7] = target: CYP2C19 (Homo sapiens, UniProt P33261); settings: cited from earlier work
CYP2C19, sequence (P33261 whole entry): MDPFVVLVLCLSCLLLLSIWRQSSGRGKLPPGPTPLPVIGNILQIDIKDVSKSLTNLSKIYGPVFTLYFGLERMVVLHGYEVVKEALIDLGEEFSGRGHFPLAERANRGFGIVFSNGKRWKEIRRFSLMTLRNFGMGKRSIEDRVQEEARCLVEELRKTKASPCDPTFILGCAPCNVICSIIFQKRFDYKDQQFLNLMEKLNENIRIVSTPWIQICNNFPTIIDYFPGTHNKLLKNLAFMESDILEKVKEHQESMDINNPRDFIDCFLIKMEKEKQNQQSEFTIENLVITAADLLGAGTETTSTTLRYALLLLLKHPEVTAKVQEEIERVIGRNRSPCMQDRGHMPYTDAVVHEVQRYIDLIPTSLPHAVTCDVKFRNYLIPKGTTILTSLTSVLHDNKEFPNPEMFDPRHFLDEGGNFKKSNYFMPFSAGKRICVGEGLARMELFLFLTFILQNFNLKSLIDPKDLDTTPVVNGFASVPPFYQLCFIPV

[8] = target: CYP2D6 (Homo sapiens, UniProt P10635); settings: cited from earlier work
CYP2D6, sequence (P10635 whole entry): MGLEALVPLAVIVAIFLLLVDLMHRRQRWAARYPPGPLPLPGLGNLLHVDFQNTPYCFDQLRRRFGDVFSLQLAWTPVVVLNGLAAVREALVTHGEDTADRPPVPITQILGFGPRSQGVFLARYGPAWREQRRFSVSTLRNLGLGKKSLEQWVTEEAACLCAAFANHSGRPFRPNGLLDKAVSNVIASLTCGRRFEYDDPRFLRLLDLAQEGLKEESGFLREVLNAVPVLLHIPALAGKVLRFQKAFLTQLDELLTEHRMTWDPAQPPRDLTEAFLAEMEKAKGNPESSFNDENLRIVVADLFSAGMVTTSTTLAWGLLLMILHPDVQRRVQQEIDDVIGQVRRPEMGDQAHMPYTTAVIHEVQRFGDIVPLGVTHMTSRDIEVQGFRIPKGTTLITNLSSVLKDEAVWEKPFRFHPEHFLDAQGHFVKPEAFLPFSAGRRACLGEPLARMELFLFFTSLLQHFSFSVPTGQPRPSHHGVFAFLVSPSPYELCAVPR

[9] = target: CYP3A4 (Homo sapiens, UniProt P08684); settings: cited from earlier work
CYP3A4 (Homo sapiens, UniProt P08684), sequence (P08684 whole entry): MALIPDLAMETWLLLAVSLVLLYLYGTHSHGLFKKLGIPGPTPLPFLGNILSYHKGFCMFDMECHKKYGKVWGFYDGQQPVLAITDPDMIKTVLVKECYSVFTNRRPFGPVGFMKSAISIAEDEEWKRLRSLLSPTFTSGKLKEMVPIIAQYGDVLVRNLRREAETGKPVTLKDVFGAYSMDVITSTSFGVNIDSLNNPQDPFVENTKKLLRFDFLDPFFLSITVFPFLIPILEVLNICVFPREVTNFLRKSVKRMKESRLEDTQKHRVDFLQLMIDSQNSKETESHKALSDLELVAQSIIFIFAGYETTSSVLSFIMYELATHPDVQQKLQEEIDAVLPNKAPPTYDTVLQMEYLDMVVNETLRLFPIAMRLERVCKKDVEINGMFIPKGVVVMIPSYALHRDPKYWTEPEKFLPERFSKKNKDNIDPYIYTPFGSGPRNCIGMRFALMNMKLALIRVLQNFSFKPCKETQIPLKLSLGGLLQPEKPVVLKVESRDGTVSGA

[10] = test system: CYP3A4; settings: cited from earlier work

Compound: CCNC(C)Cc1cccc(C(F)(F)F)c1 (racemic) [fenfluramine, 3-trifluoromethyl-N-ethylamphetamine]
- Exposure impact: ratio of AUC0-72 for combination treatment to AUC0-72 for fenfluramine alone [1]: 1.66 and 1.67
- Agonistic effect on 5-HT2B receptor [2]: does not have significant agonistic effects

Compound: C=C(C)[C@@H]1CCC(C)=C[C@H]1c1c(O)cc(CCCCC)cc1O [cannabidiol]
- Inhibition of CYP1A2 [3]: potent inhibitor of CYP1A2 (time-dependent effect)
- Inhibition of CYP2B6 [4]: potent inhibitor
- Inhibition of CYP2C8 [5]: inhibitory effects
- Inhibition of CYP2C9 [6]: inhibitory effects
- Inhibition of CYP2C19 [7]: inhibitory effects
- Inhibition of CYP2D6 [8]: inhibitory effects
- Inhibition of CYP3A4 [9]: potent inhibitor

Compound: CN1C(=O)CC(=O)N(c2ccccc2)c2cc(Cl)ccc21 [clobazam]
- Inhibition of CYP2D6 [8]: strongly inhibits
- Induction of CYP3A4 [10]: weak inducer

Compound: CC(N)Cc1cccc(C(F)(F)F)c1 (stereo not drawn) [norfenfluramine]
- Exposure impact: ratio of AUC0-72 for combination treatment to AUC0-72 for fenfluramine alone [1]: 0.59
- Reduction of patient exposure to norfenfluramine ([1]; fenfluramine co-administered with stiripentol, clobazam and valproate): ~30%
- Agonistic effect on 5-HT2B receptor [2]: particularly potent 5-HT2B agonist

Compound: CC(C)(C)C(O)/C=C/c1ccc2c(c1)OCO2 (stereo not drawn) [stiripentol]
- Inhibition of CYP1A2 [3]: strongly inhibits
- Inhibition of CYP2C9 [6]: less strongly
- Inhibition of CYP2C19 [7]: less strongly
- Inhibition of CYP3A4 [9]: strongly inhibits
